Data published in patent publication US11807649B2, “Fused tetracyclic quinazoline derivatives as inhibitors of ErbB2” (EnLiven Therapeutics, Inc., priority 2021, dated 2023).
Read-outs that look alike come from different tables or passages of the source.

Tested on: Ba/F3 ERBB2 YVMA
Assay: Cell viability assay (CellTiter Glo), Ba/F3 cells engineered to express ERBB2 YVMA
Type: cell-based
Conditions: Mus musculus, BaF3, 72 h
Procedure: Cells were treated with compounds, and cell viability was measured as a metric of kinase inhibition.
BT-474, A431, MDA-MB-175VII, NCI-H1781, MCF7, and Ba/F3 cell lines were tested. The Ba/F3 cell line is IL-3-dependent mouse cell line derived from the C3H mouse strain. Ba/F3 cell lines were engineered to express human ERBB2 or EGFR kinases, rendering the cells IL-3 independent. The lines were generated via retroviral transduction utilizing a Moloney murine leukemia virus (MMLV) promoter, and constructs are stably integrated into the cell genome. The sequences of the ERBB2 and EGFR genes used were NCBI Reference Sequences NM 004448.3 and NM 005228.3, respectively.
BT-474, A431, MDA-MB-175VII, NCI-H1781 and MCF7 cells were grown in the appropriate growth medium as described in Table B2 below, and harvested at 50-80% confluence. BT-474, A431, MDA-MB-175VII, NCI-H1781 and MCF7 cells were counted and seeded at 2,000 or 1,500 cells per well in 384-well tissue culture plates (see Table B2). Similarly, Ba/F3 cell lines engineered to express EGFR, ERBB2, or ERBB2 mutants were grown, harvested, counted and seeded at 3000 cells per well in 96-well plates. A subset of wells contained media only (low control, “LC”).
Table B1 provides the growth media and number of cells seeded per well for the each cell line.
Compounds were dissolved in DMSO and serially diluted. Serially-diluted compound or a DMSO only control (high control, “HC”) was added to the plated cells in each well. Compounds were tested at concentrations of about 10 μM to 0.51 nM, using three-fold dilutions. The final proportion of DMSO never exceeded 0.1%.
Plates were placed in a 37° C., 5% CO2 incubator for 72 hours. Plates were then removed from the incubator and equilibrated for 15 minutes at room temperature. […] of CellTiter Glo reagent (Promega) was added to measure the relative level of metabolically active cells by quantifying intracellular ATP concentrations. Plates were incubated for 30 minutes at room temperature, and luminescence was measured. Percent viability was normalized to a vehicle control only using the following formula: % viability=100×(Lumsample−LumLC)/(LumHC−LumLC). Graphical curves were fitted using a nonlinear regression model with a sigmoidal dose response.

[1] = Ba/F3 cells expressing human ERBB2 YVMA mutant, 72 hours, cell viability, CellTiter Glo, read-out: Ba/F3 ERBB2 YVMA, IC50

SMILES	IC50 [1] [nM]	IC50 (read-out: Ba/F3 ERBB2 YVMA, IC50, nM) [nM]
Cc1c(Oc2ccn3ncnc3c2)ccc(Nc2ncnc3cc4c(nc23)N2CCN(C(=O)/C=C/CN(C)C)[C@H](CO4)C2)c1F [Compound 35, (E)-1-((10S)-4-((4-([1,2,4]triazolo[1,5-a]pyridin-7-yloxy)-2-fluoro-3-methylphenyl)amino)-7,8,10,11-tetrahydro-9H-6,10-methanopyrimido[4′,5′:5,6]pyrido[3,2-b][1,4,7]oxadiazonin-9-yl)-4-(dimethylamino)but-2-en-1-one]	1.29	–
CN(C)C/C=C/C(=O)N1CCN2C[C@H]1COc1cc3ncnc(Nc4ccc(Oc5ccn6ncnc6c5)c(F)c4)c3nc12 [Compound 39, (E)-1-((10S)-4-((4-([1,2,4]triazolo[1,5-a]pyridin-7-yloxy)-3-fluorophenyl)amino)-7,8,10,11-tetrahydro-9H-6,10-methanopyrimido[4′,5′:5,6]pyrido[3,2-b][1,4,7]oxadiazonin-9-yl)-4-(dimethylamino)but-2-en-1-one]	5.54	–
Cc1cc(Nc2ncnc3cc4c(c(F)c23)N2CCN(C(=O)/C=C/CN(C)C)[C@H](CO4)C2)ccc1Oc1ccn2ncnc2c1 [Compound 40, (E)-1-((10S)-4-((4-([1,2,4]triazolo[1,5-a]pyridin-7-yloxy)-3-methylphenyl)amino)-5-fluoro-7,8,10,11-tetrahydro-9H-6,10-methano[1,4,7]oxadiazonino[3,2-g]quinazolin-9-yl)-4-(dimethylamino)but-2-en-1-one]	29.4	–
CN(C)C/C=C/C(=O)N1CCN2C[C@H]1COc1cc3ncnc(Nc4ccc(Oc5ccn6ncnc6c5)cc4F)c3nc12 [Compound 42, (E)-1-((10S)-4-((4-([1,2,4]triazolo[1,5-a]pyridin-7-yloxy)-2-fluorophenyl)amino)-7,8,10,11-tetrahydro-9H-6,10-methanopyrimido[4′,5′:5,6]pyrido[3,2-b][1,4,7]oxadiazonin-9-yl)-4-(dimethylamino)but-2-en-1-one]	10.3	–
CN(C)C/C=C/C(=O)N1CCN2C[C@H]1COc1cc3ncnc(Nc4cc(Cl)c(Oc5ccn6ncnc6c5)cc4F)c3nc12 [Compound 43, (E)-1-((10S)-4-((4-([1,2,4]triazolo[1,5-a]pyridin-7-yloxy)-5-chloro-2-fluorophenyl)amino)-7,8,10,11-tetrahydro-9H-6,10-methanopyrimido[4′,5′:5,6]pyrido[3,2-b][1,4,7]oxadiazonin-9-yl)-4-(dimethylamino)but-2-en-1-one]	4.65	–
Cc1cc(Nc2ncnc3cc4c(nc23)N2CCN(C(=O)/C=C/CN(C)C)[C@H](CO4)C2)c(F)cc1Oc1cncc(F)c1 [Compound 44]	9.18	–
CN(C)C/C=C/C(=O)N1CCN2C[C@H]1COc1cc3ncnc(Nc4cc(F)c(Oc5ccn6ncnc6c5)cc4F)c3nc12 [Compound 48, (E)-1-((10S)-4-((4-([1,2,4]triazolo[1,5-a]pyridin-7-yloxy)-2,5-difluorophenyl)amino)-7,8,10,11-tetrahydro-9H-6,10-methanopyrimido[4′,5′:5,6]pyrido[3,2-b][1,4,7]oxadiazonin-9-yl)-4-(dimethylamino)but-2-en-1-one]	–	4.85
Cc1cc(Nc2ncnc3cc4c(nc23)N2CCN(C(=O)/C=C/[C@@H](C)N(C)C)[C@H](CO4)C2)c(F)cc1Oc1ccn2ncnc2c1 [Compound 50, (4R,E)-1-((10S)-4-((4-([1,2,4]triazolo[1,5-a]pyridin-7-yloxy)-2-fluoro-5-methylphenyl)amino)-7,8,10,11-tetrahydro-9H-6,10-methanopyrimido[4′,5′:5,6]pyrido[3,2-b][1,4,7]oxadiazonin-9-yl)-4-(dimethylamino)pent-2-en-1-one]	62.6	–
Cc1cc(Nc2ncnc3cc4c(nc23)N2CCN(C(=O)/C=C/CN(C)C)[C@H](CO4)C2)ccc1Oc1cncc(F)c1 [Compound 51]	3.37	–
Cc1cc(Nc2ncnc3cc4c(nc23)N2CCN(C(=O)/C=C/CN(C)C)C(CCO4)C2)ccc1Oc1ccn2ncnc2c1 (stereo not shown) [Compound 52, (E)-1-(4-((4-([1,2,4]triazolo[1,5-a]pyridin-7-yloxy)-3-methylphenyl)amino)-7,8,11,12-tetrahydro-6,10-methanopyrimido[4′,5′:5,6]pyrido[3,2-b][1,4,7]oxadiazecin-9(10H)-yl)-4-(dimethylamino)but-2-en-1-one]	109	–

Second part, led by results:

IC50 [1] [nM]	SMILES	IC50 (read-out: Ba/F3 ERBB2 YVMA, IC50, nM) [nM]
4.54	CN(C)C/C=C/C(=O)N1CCN2C[C@H]1COc1cc3ncnc(Nc4ccc(Oc5ccn6ncnc6c5)c(Cl)c4)c3nc12 [Compound 32, (E)-1-((10S)-4-((4-([1,2,4]triazolo[1,5-a]pyridin-7-yloxy)-3-chlorophenyl)amino)-7,8,10,11-tetrahydro-9H-6,10-methanopyrimido[4′,5′:5,6]pyrido[3,2-b][1,4,7]oxadiazonin-9-yl)-4-(dimethylamino)but-2-en-1-one]	–
7.18	Cc1cc(Nc2ncnc3cc4c(nc23)N2CCN(C(=O)/C=C/CN(C)C)[C@H](CO4)C2)ccc1Oc1ccn2ccnc2c1 [Compound 34, (E)-4-(dimethylamino)-1-((10S)-4-((4-(imidazo[1,2-a]pyridin-7-yloxy)-3-methylphenyl)amino)-7,8,10,11-tetrahydro-9H-6,10-methanopyrimido[4′,5′:5,6]pyrido[3,2-b][1,4,7]oxadiazonin-9-yl)but-2-en-1-one]	–
8.67	Cc1cc(Nc2ncnc3cc4c(nc23)N2CCN(C(=O)/C=C/[C@H]3CCCN3C)[C@H](CO4)C2)c(F)cc1Oc1ccn2ncnc2c1 [Compound 41, (E)-1-((10S)-4-((4-([1,2,4]triazolo[1,5-a]pyridin-7-yloxy)-2-fluoro-5-methylphenyl)amino)-7,8,10,11-tetrahydro-9H-6,10-methanopyrimido[4′,5′:5,6]pyrido[3,2-b][1,4,7]oxadiazonin-9-yl)-34-((R)-1-methylpyrrolidin-2-yl)prop-2-en-1-one]	–
46.7	Cc1cc(Nc2ncnc3cc4c(nc23)N2CCN(C(=O)/C=C/C3CN(C)C3)[C@H](CO4)C2)ccc1Oc1ccn2ncnc2c1 [Compound 45, (E)-1-((10S)-4-((4-([1,2,4]triazolo[1,5-a]pyridin-7-yloxy)-3-methylphenyl)amino)-7,8,10,11-tetrahydro-9H-6,10-methanopyrimido[4′,5′:5,6]pyrido[3,2-b][1,4,7]oxadiazonin-9-yl)-3-(1-methylazetidin-3-yl)prop-2-en-1-one]	–
13	Cc1cc(Nc2ncnc3cc4c(nc23)N2CCN(C(=O)/C=C/[C@H](C)N(C)C)[C@H](CO4)C2)c(F)cc1Oc1ccn2ncnc2c1 [Compound 47, (4S,E)-1-((10S)-4-((4-([1,2,4]triazolo[1,5-a]pyridin-7-yloxy)-2-fluoro-5-methylphenyl)amino)-7,8,10,11-tetrahydro-9H-6,10-methanopyrimido[4′,5′:5,6]pyrido[3,2-b][1,4,7]oxadiazonin-9-yl)-4-(dimethylamino)pent-2-en-1-one]	–
37.6	CNC/C=C/C(=O)N1CCN2C[C@H]1COc1cc3ncnc(Nc4cc(C)c(Oc5ccn6ncnc6c5)cc4F)c3nc12 [Compound 49, (E)-1-((10S)-4-((4-([1,2,4]triazolo[1,5-a]pyridin-7-yloxy)-2-fluoro-5-methylphenyl)amino)-7,8,10,11-tetrahydro-9H-6,10-methanopyrimido[4′,5′:5,6]pyrido[3,2-b][1,4,7]oxadiazonin-9-yl)-4-(methylamino)but-2-en-1-one]	–
